Experimental data taken from paper PMC6063846, “Matrine inhibits itching by lowering the activity of calcium channel” (Scientific Reports, 2018).

Biological target: T1, N-type calcium channel (Mus musculus, UniProt O55017)
T1 construct: gene Cacna1b
Format: cell-based

T1 sequence (O55017 whole entry): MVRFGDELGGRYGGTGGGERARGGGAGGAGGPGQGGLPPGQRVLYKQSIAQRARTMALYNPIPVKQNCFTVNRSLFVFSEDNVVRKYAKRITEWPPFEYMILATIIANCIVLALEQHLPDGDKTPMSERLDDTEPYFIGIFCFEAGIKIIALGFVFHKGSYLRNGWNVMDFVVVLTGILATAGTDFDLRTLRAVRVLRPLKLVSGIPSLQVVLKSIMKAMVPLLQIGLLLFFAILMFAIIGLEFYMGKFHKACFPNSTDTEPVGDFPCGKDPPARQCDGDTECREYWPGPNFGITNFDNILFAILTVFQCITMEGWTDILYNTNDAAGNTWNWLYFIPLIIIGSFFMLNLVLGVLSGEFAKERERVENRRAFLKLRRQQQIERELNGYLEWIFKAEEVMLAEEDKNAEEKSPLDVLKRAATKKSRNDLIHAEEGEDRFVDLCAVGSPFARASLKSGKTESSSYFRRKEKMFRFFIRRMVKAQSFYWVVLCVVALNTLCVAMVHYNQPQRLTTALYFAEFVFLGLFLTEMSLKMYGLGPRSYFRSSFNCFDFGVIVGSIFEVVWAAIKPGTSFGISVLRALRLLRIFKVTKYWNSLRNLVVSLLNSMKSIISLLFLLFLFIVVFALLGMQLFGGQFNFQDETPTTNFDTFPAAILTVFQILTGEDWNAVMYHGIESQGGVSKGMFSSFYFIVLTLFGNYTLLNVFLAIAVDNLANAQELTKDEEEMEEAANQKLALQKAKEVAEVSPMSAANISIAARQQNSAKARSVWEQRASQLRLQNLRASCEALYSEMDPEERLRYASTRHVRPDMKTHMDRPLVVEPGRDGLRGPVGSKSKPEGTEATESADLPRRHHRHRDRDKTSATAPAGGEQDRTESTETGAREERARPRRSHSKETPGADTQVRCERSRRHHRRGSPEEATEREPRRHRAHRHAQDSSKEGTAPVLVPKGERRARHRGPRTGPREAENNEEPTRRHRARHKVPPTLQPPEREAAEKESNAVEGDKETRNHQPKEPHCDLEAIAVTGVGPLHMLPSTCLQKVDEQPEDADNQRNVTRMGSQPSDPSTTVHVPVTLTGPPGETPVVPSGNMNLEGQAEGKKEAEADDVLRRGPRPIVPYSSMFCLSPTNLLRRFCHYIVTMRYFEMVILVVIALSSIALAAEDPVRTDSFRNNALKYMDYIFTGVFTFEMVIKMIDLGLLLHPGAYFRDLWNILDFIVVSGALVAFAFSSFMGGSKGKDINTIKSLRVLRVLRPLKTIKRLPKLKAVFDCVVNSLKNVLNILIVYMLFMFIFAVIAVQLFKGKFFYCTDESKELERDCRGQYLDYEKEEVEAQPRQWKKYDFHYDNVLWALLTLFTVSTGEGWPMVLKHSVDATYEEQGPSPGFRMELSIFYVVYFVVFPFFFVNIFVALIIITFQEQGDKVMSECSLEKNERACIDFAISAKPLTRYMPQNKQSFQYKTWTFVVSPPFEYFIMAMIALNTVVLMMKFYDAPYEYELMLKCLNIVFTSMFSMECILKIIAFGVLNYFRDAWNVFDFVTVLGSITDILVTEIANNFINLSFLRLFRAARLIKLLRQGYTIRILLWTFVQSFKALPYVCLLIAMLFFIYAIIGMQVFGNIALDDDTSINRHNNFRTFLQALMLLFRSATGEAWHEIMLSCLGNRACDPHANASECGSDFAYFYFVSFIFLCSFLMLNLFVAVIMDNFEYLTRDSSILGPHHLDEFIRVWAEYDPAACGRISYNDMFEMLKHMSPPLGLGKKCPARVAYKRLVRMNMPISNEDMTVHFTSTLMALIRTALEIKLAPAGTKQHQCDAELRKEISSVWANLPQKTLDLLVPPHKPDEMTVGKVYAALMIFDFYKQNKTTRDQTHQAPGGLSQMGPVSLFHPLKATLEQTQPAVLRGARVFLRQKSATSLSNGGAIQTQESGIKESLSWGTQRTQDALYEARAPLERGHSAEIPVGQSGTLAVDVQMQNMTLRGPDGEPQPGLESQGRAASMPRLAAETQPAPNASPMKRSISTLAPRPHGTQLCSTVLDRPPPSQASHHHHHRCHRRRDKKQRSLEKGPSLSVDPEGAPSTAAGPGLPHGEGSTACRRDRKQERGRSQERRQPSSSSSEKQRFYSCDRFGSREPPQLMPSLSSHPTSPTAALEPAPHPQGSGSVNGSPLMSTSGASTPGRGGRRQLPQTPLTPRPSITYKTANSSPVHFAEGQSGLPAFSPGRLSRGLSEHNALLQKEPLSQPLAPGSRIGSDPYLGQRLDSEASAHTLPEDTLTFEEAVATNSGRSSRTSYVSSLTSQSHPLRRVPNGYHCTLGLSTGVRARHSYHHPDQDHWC

O=C1CCC[C@@H]2[C@H]3CCCN4CCC[C@@H](CN12)[C@@H]34 [MT, Matrine] was tested, and the “whole-cell patch clamp of HVA Ca2+ currents in native mouse DRG neurons, occlusi” value was “the inhibitory effect of MT on HVA Ica current is mainly by inhibiting the N-type calcium channel”.
